Test results from the Kinase Knowledgebase extract (Sharma et al. 2016).

What was measured:
PIK3CA (human) = PIK3CA (human) (UniProt P42336); assay: Inhibition of PIK3CA Kinase Activity
[1] = molecular target: PIK3CA (human), P42336 [Antiproliferation of PI3K Mutated BT20 Cells]; assay: Cell-Based Assay
Chain of PIK3CA (human), P42336 [Antiproliferation of PI3K Mutated BT20 Cells] (P42336 whole entry, looked up, change not shown): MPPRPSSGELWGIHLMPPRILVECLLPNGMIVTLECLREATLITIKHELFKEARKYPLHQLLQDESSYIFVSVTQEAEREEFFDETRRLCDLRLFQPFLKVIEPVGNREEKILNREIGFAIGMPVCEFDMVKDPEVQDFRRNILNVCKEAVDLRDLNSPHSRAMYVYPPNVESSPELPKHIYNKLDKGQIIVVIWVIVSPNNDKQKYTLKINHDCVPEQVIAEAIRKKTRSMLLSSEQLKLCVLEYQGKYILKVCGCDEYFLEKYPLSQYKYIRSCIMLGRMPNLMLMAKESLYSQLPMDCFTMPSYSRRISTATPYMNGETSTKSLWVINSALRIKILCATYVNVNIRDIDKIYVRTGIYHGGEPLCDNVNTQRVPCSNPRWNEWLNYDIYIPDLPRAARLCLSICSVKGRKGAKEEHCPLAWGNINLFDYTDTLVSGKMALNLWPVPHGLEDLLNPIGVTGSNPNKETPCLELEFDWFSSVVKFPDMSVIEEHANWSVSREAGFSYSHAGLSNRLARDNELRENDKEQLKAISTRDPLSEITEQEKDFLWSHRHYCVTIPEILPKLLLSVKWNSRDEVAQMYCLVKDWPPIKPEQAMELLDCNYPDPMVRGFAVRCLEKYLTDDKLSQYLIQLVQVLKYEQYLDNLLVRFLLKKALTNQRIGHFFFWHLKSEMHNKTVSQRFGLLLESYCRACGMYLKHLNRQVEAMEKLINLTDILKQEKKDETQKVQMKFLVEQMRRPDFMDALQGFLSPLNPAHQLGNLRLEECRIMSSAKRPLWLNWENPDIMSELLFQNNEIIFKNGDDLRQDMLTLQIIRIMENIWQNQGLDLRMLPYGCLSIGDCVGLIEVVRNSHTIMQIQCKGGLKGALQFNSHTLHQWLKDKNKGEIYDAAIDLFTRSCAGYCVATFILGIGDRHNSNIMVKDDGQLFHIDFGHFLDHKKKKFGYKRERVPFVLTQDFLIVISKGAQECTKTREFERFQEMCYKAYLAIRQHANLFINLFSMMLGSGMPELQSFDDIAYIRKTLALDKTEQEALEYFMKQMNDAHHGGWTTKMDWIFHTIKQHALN

Chain of PIK3CA (human) (P42336 whole entry, looked up): as the sequence (P42336 whole entry, looked up, change not shown) above

| SMILES | IC50 (PIK3CA (human)) [nM] | IC50 [1] [nM] |
| --- | --- | --- |
| Cc1nc(N)nc2c1cc(-c1cnc3[nH]ccc3c1)c(=O)n2C1CCCC1 | 0.48 | 2.76 |
| COc1ccc(-c2cc3c(C)nc(NCC(C)(C)O)nc3n(C3CCCC3)c2=O)cn1 | 830 | 5750 |
| CNc1nc(C)c2cc(-c3cn[nH]c3)c(=O)n(C3CCCC3)c2n1 | 8 | 2.58 |
| Cc1nc(N)nc2c1cc(-c1cnn(C)c1)c(=O)n2C1CCCC1 | 32 | 623 |
| COc1ncc(-c2cc3c(C)nc(N)nc3n(C(C)C)c2=O)cn1 | 2.2 | 49.3 |
| Cc1nc(N)nc2c1cc(C(=O)Nc1ccn[nH]1)c(=O)n2[C@H]1CC[C@H](O)CC1 | 0.59 | 28.3 |
| Cc1nc(N)nc2c1cc(-c1cn[nH]c1)c(=O)n2C1CN(C(=O)OC(C)(C)C)C1 | 120 | 41.5 |
| CNc1nc(C)c2cc(C(=O)Nc3cc[nH]n3)c(=O)n(C3CCCC3)c2n1 | 2.34 | 16.4 |
| CCOc1ccc(-c2cc3c(C)nc(N)nc3n([C@H]3CC[C@H](O)CC3)c2=O)cn1 | 2.7 | 21.2 |
| COc1ccc(-c2cc3c(C)nc(N)nc3n(C3CCNC3)c2=O)cn1 (centres undefined) | 200 | 671 |
| Cc1nc(N)nc2c1cc(-c1cccc(CO)c1)c(=O)n2C1CCCC1 | 3.1 | 20.2 |
| COc1ccc(-c2cc3c(C)nc(N)nc3n(CC3CCCO3)c2=O)cn1 (centres undefined) | 21 | 120 |
| COc1cccc(-c2cc3c(C)nc(N)nc3n(C3CCCC3)c2=O)c1 | 168 | 622 |
| Cc1nc(N)nc2c1cc(C#N)c(=O)n2C1CCC1 | 95 | 2090 |
| Cc1nc(N)nc2c1cc(Br)c(=O)n2C1CCC(=O)CC1 | 110 | 211 |
| COc1ncc(-c2cc3c(C)nc(N)nc3n(C3CCCC3)c2=O)cn1 | 2 | 9.57 |
| Cc1nc(N)nc2c1cc(-c1ccc(OC(C)C)nc1)c(=O)n2[C@H]1CC[C@H](O)CC1 | 9.4 | 71.8 |
| CCNc1nc(C)c2cc(CCC(=O)OCC)c(=O)n(C3CCCC3)c2n1 | 5500 | 10000 |
| CNc1nc(C)c2cc(-c3ccc(O)c(OC)c3)c(=O)n(C3CCCC3)c2n1 | 1.57 | 3.82 |
| CNc1nc(C)c2cc(-c3cnn(CCO)c3)c(=O)n(C3CCCC3)c2n1 | 24 | 234 |
| Cc1nc(N)nc2c1cc(Br)c(=O)n2CC1CCCO1 (centres undefined) | 100 | 2130 |
| CO[C@H]1CC[C@H](n2c(=O)c(Br)cc3c(C)nc(N)nc32)CC1 | 31 | 64 |

More lines, in order of falling IC50 (PIK3CA (human)), values ahead:

| IC50 (PIK3CA (human)) [nM] | IC50 [1] [nM] | SMILES |
| --- | --- | --- |
| 810 | 10000 | Cc1nc(N)nc2c1cc(-c1cnc(O)nc1)c(=O)n2C1CCOCC1 |
| 310 | 5710 | CCNc1nc(C)c2cc(CCC(=O)Nc3ncc[nH]3)c(=O)n(C3CCCC3)c2n1 |
| 300 | 2520 | Cc1nc(N)nc2c1cc(-c1cnc(O)nc1)c(=O)n2C(C)C |
| 88 | 26.5 | Cc1nc(N)nc2c1cc(-c1ccc(N3CCCC3)nc1)c(=O)n2C1CCCC1 |
| 62 | 556 | Cc1nc(N)nc2c1cc(-c1c[nH]nn1)c(=O)n2C(C)C |
| 60 | 603 | CNc1nc(C)c2cc(C#N)c(=O)n(C3CCCC3)c2n1 |
| 54 | 10000 | CCNc1nc(C)c2cc(CCC(=O)O)c(=O)n(C3CCCC3)c2n1 |
| 45 | 495 | Cc1nc(N)nc2c1cc(-c1cnn(CCO)c1)c(=O)n2C1CCCC1 |
| 45 | 26.7 | COc1ncc(-c2cc3c(C)nc(N)nc3n(C3CCOCC3)c2=O)cn1 |
| 19 | 4.92 | Cc1nc(N)nc2c1cc(-c1ccc(N3CCCC3)nc1)c(=O)n2[C@H]1CC[C@H](O)CC1 |
| 18 | 15.2 | Cc1nc(N)nc2c1cc(-c1cn[nH]c1)c(=O)n2C1CCC(C)(O)CC1 (centres undefined) |
| 17 | 106 | C=CCn1c(=O)c(-c2ccc(OC)nc2)cc2c(C)nc(NC)nc21 |
| 6 | 22.1 | CNc1nc(C)c2cc(-c3cn[nH]c3)c(=O)n(CC3CCOC3)c2n1 (centres undefined) |
| 4.3 | 19.3 | COc1ccc(-c2cc3c(C)nc(N)nc3n(C3CCC(=O)CC3)c2=O)cn1 |
| 3.9 | 33.2 | Cc1nc(N)nc2c1cc(-c1cccc(CO)c1)c(=O)n2C1CCOCC1 |
| 3.9 | 7.37 | COc1ccc(-c2cc3c(C)nc(N)nc3n([C@H]3CC[C@H](OC)CC3)c2=O)cn1 |
| 3.11 | 14.6 | COc1ncc(-c2cc3c(C)nc(N)nc3n([C@H]3C[C@H](OCCO)C3)c2=O)cc1F |
| 3.08 | 26.3 | CCNc1nc(C)c2cc(-c3ccc(O)c(OC)c3)c(=O)n(C3CCCC3)c2n1 |
| 2.9 | 30.5 | Cc1nc(N)nc2c1cc(C(=O)Nc1ccn[nH]1)c(=O)n2C(C)C |
| 1.77 | 46.1 | CCNc1nc(C)c2cc(-c3cnc4[nH]ccc4c3)c(=O)n(C3CCCC3)c2n1 |
